# Experiments:
# Assay type in all cases: cell-based
# CYP1A1 = target: T1, CYP1A1 (Homo sapiens, UniProt P04798); experiment: EROD (ethoxyresorufin deethylase) assay in V79 cells expressing human CYP1A1
# T1 sequence (P04798 1-512): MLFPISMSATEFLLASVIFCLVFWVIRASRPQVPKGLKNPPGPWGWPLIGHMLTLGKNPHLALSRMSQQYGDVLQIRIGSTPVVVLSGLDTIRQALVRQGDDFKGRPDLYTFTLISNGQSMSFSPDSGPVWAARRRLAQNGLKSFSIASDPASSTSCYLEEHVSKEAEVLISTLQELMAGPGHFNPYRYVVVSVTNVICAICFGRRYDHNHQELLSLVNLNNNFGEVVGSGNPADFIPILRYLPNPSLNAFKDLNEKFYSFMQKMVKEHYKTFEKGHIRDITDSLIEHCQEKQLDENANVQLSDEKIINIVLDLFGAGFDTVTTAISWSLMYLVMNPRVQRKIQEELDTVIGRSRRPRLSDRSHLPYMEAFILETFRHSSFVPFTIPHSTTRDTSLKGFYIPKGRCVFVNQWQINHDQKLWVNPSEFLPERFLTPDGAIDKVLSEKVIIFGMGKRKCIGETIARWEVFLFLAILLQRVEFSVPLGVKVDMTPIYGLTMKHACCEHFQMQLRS
# CYP1B1 = target: T2, CYP1B1 (Homo sapiens, UniProt Q16678); experiment: EROD (ethoxyresorufin deethylase) assay in V79 cells expressing human CYP1B1
# T2 sequence (Q16678 1-543): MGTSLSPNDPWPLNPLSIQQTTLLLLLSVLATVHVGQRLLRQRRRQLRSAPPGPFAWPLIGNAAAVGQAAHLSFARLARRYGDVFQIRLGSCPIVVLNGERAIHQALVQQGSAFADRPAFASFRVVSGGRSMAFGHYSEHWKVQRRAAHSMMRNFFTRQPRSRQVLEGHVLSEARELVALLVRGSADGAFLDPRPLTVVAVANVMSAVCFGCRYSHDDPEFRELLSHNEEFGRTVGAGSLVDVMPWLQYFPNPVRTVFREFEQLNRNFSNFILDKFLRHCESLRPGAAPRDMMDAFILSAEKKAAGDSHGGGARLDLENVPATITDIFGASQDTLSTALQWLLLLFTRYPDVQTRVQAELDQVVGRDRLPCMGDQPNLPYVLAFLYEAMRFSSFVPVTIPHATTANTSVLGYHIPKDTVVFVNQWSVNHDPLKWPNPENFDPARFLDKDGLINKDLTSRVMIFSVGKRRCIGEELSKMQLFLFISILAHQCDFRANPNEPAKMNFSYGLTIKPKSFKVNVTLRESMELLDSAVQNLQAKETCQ
# CYP1A2 = target: T3, CYP1A2 (Homo sapiens, UniProt P05177); experiment: EROD (ethoxyresorufin deethylase) assay in V79 cells expressing human CYP1A2
# T3 sequence (P05177 2-516): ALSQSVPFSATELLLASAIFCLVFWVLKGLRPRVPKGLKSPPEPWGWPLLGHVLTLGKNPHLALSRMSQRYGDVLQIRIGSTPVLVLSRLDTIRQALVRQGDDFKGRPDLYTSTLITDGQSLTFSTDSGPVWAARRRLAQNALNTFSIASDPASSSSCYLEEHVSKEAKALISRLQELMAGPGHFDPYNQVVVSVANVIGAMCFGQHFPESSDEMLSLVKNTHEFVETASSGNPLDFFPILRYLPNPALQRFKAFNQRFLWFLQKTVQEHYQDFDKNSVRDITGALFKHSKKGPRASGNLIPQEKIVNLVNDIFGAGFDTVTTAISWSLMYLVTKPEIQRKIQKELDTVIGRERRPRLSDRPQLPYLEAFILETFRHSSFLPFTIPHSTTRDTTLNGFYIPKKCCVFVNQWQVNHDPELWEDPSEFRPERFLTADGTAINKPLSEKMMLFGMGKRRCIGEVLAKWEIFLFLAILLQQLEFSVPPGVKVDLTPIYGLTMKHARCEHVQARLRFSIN
smiles,measurement,setting,value
"CC#Cc1ccc2ccc3cccc4ccc1c2c34 [1-PP, 1-(1-propynyl)-pyrene]",IC50,CYP1A1,5 nM
same,IC50,CYP1B1,218 nM
same,IC50,CYP1A2,650 nM

# From article PMC5343665, “Cytochrome P450s in human immune cells regulate IL-22 and c-Kit via an AHR feedback loop” (Scientific Reports, 2017)
